# According to patent US8293705B2, “HCV protease inhibitors and uses thereof” (Avila Therapeutics, Inc., priority 2007, dated 2012):
# What was measured:
# [1] = target: T1, HCV NS3/4A 1b protease R155K (Hepatitis C virus genotype 1b, UniProt Q9WMX2, R1181K); experiment: HCV protease FRET assay (IC50_APP), Example 16; type: biochemical; settings: reaction started immediately after enzyme addition, read-out: Inhibition (apparent IC50, IC50_APP), HCV R155K
# T1 construct: 10× stocks of NS3/4A protease enzyme from Bioenza (Mountain View, Calif.); purchased Bioenza (Mountain View, Calif.)
# Experimental: (§1) The following protocol was used to generate “apparent” IC50 (IC50 APP) values as depicted in Table 6, below. […] 5 μL of each enzyme were added to Corning (#3575) 384-well, black, microtiter plates (Corning, N.Y.) after spotting a 0.5 μL volume of 50% DMSO and serially diluted compounds prepared in 50% DMSO. Protease reactions were immediately started after enzyme addition with the addition of 45 μL of the FRET substrate and monitored for 60-90 minutes at λex485/λem520 in a Synergy^4 plate reader from BioTek (Winooski, Vt.). At the conclusion of each assay, progress curves from each well were examined for linear reaction kinetics and fit statistics (R^2, 95% confidence intervals, absolute sum of squares).
# (§2) The compound numbers correspond to the compound numbers in Table 3. […] ;
# [2] = target: T2, HCV NS3/4A 1b protease D168A (Hepatitis C virus genotype 1b, UniProt Q9WMX2, D1194A); experiment: HCV protease FRET assay (IC50_APP), Example 16; type: biochemical
# T2 construct: 10× stocks of NS3/4A protease enzyme from Bioenza (Mountain View, Calif.); purchased Bioenza (Mountain View, Calif.)
# Experimental: as §1, §2
# [3] = target: T3, HCV NS3/4A 1b protease wild type (Hepatitis C virus genotype 1b, UniProt Q9WMX2); experiment: HCV protease FRET assay (IC50_APP), Example 16; type: biochemical
# T3 construct: 10× stocks of NS3/4A protease enzyme from Bioenza (Mountain View, Calif.); purchased Bioenza (Mountain View, Calif.)
# Experimental: as §1, §2
# [4] = target: T4, HCV NS3/4A 1b protease A156T (Hepatitis C virus genotype 1b, UniProt Q9WMX2, A1182T); experiment: HCV protease FRET assay (IC50_APP), Example 16; type: biochemical
# T4 construct: 10× stocks of NS3/4A protease enzyme from Bioenza (Mountain View, Calif.); purchased Bioenza (Mountain View, Calif.)
# Experimental: as §1, §2
# [5] = test system: HCV RNA replicon in cell line ET (luc-ubi-neo/ET), human Huh7 hepatoma; experiment: Replicon luciferase assay, Example 26; type: cell-based; settings: Hepatitis C virus, Huh-7, assay of Example 26, 72 hr; for EC50: read-out: Inhibition, Replicon, EC50 value; for EC90: read-out: Inhibition, Replicon, EC90 value
# Experimental: The compounds were assayed to evaluate the antiviral activity and cytotoxicity of compounds using replicon-derived luciferase activity. This assay used the cell line ET (luc-ubi-neo/ET), which is a human Huh7 hepatoma cell line that contains an HCV RNA replicon with a stable luciferase (Luc) reporter and cell culture-adaptive mutations. The ET cell line was grown in a 5% CO2 incubator at 37° C. in Dulbecco's modified essential media (DMEM) supplemented with 2 mM L-glutamine, nonessential amino acids, 100 U of penicillin/ml, 100 μg of streptomycin/mL, and 10% fetal bovine serum. G418 (Geneticin; Invitrogen) was added at a final concentration of 400 ug//mL.
# All cell culture reagents were obtained from Invitrogen (Carlsbad). Cells were trypsinized (1% trypsin:EDTA) and plated out at 5×10^3 cells/well in white 96-well assay plates (Costar) dedicated to cell number (cytotoxicity) or antiviral activity assessments. Test compounds were added at six 3-fold concentrations each and the assay was run in DMEM, 5% FBS, 1% pen-strep, 1% glutamine, 1% non essential amino acid. Human interferon alpha-2b (PBL Biolabs, New Brunswick, N.J.) was included in each run as a positive control compound. Cells were processed 72 hr post test compound addition when the cells were still subconfluent. Antiviral activity was measured by analyzing replicon-derived luciferase activity using the Steady-Glo Luciferase Assay System (Promega, Madison, Wis.) according to manufacturer's instruction. The number of cells in each well was determined by Cell Titer Blue Assay (Promega). Compound profile was derived by calculating applicable EC50 (effective concentration inhibiting virus replication by 50%), EC90 (effective concentration inhibiting virus replication by 90%), IC50 (concentration decreasing cell viability by 50%) and SI50 (selective index: […]) values.
# [6] = target: T5, HCV NS3/4A wild type (Hepatitis C virus genotype 1b, UniProt Q9WMX2); experiment: Mass spectrometric analysis of covalent modification (MALDI-TOF); type: binding; settings: 10× excess of test compound to protein; MALDI-TOF
# T5 construct: HCV NS3/4A wild type (wt) was incubated for 1 hr at a 10× fold access of test compound to protein; purchased Bioenza, Calif
# Experimental: Mass spectrometric analysis of HCV wild type or HCV variant C159S in the presence of test compound is performed. 100 pmols of HCV wild type (Bioenza, Calif.) is incubated with test compound for 1 hr and 3 hrs at 10-fold access of test compound to protein. 1 ul aliquots of the samples (total volume of 4.24 ul) are diluted with 10 ul of 0.1% TFA prior to micro C4 ZipTipping directly onto the MALDI target using Sinapinic acid as the desorption matrix (10 mg/mL in 0.1% TFA:Acetonitrile 50:50). Analyses are performed on a Shimadzu Biotech Axima TOF2 (Shimadzu Instruments) matrix-assisted-laser desorption/ionization Time-of-Flight (MALDI-TOF) mass spectrometer. The same procedure is carried out on 100 pmols of HCV C159S mutant of HCV protease for 3 hrs at 10-fold excess of test compound to protein.
# As depicted in FIGS. 1 and 2, mass spectrometric analysis of HCV wild type in the presence of test compounds I-1 and I-25 was performed using the following protocol: HCV NS3/4A wild type (wt) was incubated for 1 hr at a 10× fold access of test compound to protein. 2 ul aliquots of the samples were diluted with 10 ul of 0.1% TFA prior to micro C4 ZipTipping directly onto the MALDI target using Sinapinic acid as the desorption matrix (10 mg/ml in 0.1% TFA:Acetonitrile 50:50). For intact protein mass measurement the instrument was set in linear mode using a pulsed extraction setting of 24,500 and apomyoglobin as the standard to calibrate the instrument.
SMILES,IC50 [1] [nM],IC50 [2] [nM],IC50 [3] [nM],IC50 [4] [nM],EC50 [5] [nM],Covalent modification of HCV NS3/4A wild type [6],EC90 [5] [nM]
C=C[C@@H]1C[C@]1(NC(=O)[C@@H]1C[C@@H]2CN1C(=O)[C@H](CCC(=O)C=C(C)C)NC(=O)OCC(C)(C)CC/C=C/c1cccc3c1CN(C3)C(=O)O2)C(=O)NS(=O)(=O)C1CC1 [Compound I-55],10 to 100,10 to 100,< 10,< 10,< 10,,
"C=CC(=O)N[C@@H](C(=O)N1C[C@H](OC(=O)N2Cc3cccc(F)c3C2)C[C@H]1C(=O)N[C@]1(C(=O)NS(=O)(=O)C2CC2)C[C@H]1C=C)C(C)C [Compound I-9, (3R,5S)-1-((R)-2-acrylamido-3-methylbutanoyl)-5-((1R,2S)-1-(cyclopropylsulfonylcarbamoyl)-2-vinylcyclopropylcarbamoyl)pyrrolidin-3-yl-4-fluoroisoindoline-2-carboxylate]",,10 to 100,< 10,< 10,,measurable covalent modification,
"C=C[C@@H]1C[C@]1(NC(=O)[C@@H]1C[C@@H](OC(=O)N2Cc3cccc(F)c3C2)CN1C(=O)CNC(=O)c1ccccc1OC(C)=O)C(=O)NS(=O)(=O)C1CC1 [Compound I-10, (3R,5S)-1-(2-(2-acetoxybenzamido)acetyl)-5-((1R,2S)-1-(cyclopropylsulfonylcarbamoyl)-2-vinylcyclopropylcarbamoyl)pyrrolidin-3-yl-4-fluoroisoindoline-2-carboxylate]",,1000 to 10000,100 to 1000,1000 to 10000,,measurable covalent modification,
C=C[C@@H]1C[C@]1(NC(=O)[C@@H]1CC(OC(=O)N2Cc3cccc(F)c3C2)CN1C(=O)[C@H](CCC(=O)/C=C/C)NC(=O)OC(C)(C)C)C(=O)NS(=O)(=O)C1CC1 (stereo partly drawn) [Compound I-26],,< 10,< 10,< 10,,measurable covalent modification,
C=CC(=O)N1C/C=C\[C@@H]2C[C@@]2(C(=O)NS(=O)(=O)C2CC2)NC(=O)[C@@H]2CC(OC(=O)N3Cc4cccc(F)c4C3)CN2C(=O)[C@@H](NC(=O)OC(C)(C)C)CCC1 (stereo partly drawn) [Compound I-37],10 to 100,10 to 100,< 10,,100 to 1000,,1000 to 10000
C=C[C@@H]1C[C@]1(NC(=O)[C@@H]1CC(OC(=O)N2Cc3cccc(F)c3C2)CN1C(=O)C(CN(C)C(=O)/C=C/CN(C)C)NC(=O)OC(C)(C)C)C(=O)NS(=O)(=O)C1CC1 (stereo partly drawn) [Compound I-50],1000 to 10000,1000 to 10000,10 to 100,,1000 to 10000,,1000 to 10000
CC(C)(C)OC(=O)N[C@H]1CN(S(=O)(=O)c2ccccc2[N+](=O)[O-])CCC/C=C\[C@@H]2C[C@@]2(C(=O)NS(=O)(=O)C2CC2)NC(=O)[C@@H]2CC(OC(=O)N3Cc4cccc(F)c4C3)CN2C1=O (stereo partly drawn) [Compound I-45],< 10,< 10,< 10,,10 to 100,,100 to 1000
"C=CC(=O)N1CCC/C=C\[C@@H]2C[C@@]2(C(=O)NS(=O)(=O)C2CC2)NC(=O)[C@@H]2CC(OC(=O)N3Cc4cccc(F)c4C3)CN2C(=O)[C@@H](NC(=O)OC(C)(C)C)C1 (stereo partly drawn) [Compound I-35, (1aR,3aS,5R,9S,16aS,Z)-11-acryloyl-9-(tert-butoxycarbonylamino)-1a-(cyclopropylsulfonylcarbamoyl)-3,8-dioxo-1,1a,2,3,3a,4,5,6,8,9,10,11,12,13,14,16a-hexadecahydrocyclopropa[n]pyrrolo[2,1-c][1,4,8]triazacyclopentadecin-5-yl-4-fluoroisoindoline-2-carboxylate]",10 to 100,10 to 100,< 10,,100 to 1000,,100 to 1000
C=C[C@@H]1C[C@]1(NC(=O)[C@@H]1CC(OC(=O)N2Cc3cccc(F)c3C2)CN1C(=O)[C@H](CCC(=O)C#CC(C)(C)C)NC(=O)OC(C)(C)C)C(=O)NS(=O)(=O)C1CC1 (stereo partly drawn) [Compound I-29],< 10,< 10,< 10,,10 to 100,,
"C=CC(=O)N[C@H](C)C(=O)N1C[C@H](OC(=O)N2Cc3cccc(F)c3C2)C[C@H]1C(=O)N[C@]1(C(=O)NS(=O)(=O)C2CC2)C[C@H]1C=C [Compound I-8, (3R,5S)-1-((R)-2-acrylamidopropanoyl)-5-((1R,2S)-1-(cyclopropylsulfonylcarbamoyl)-2-vinylcyclopropylcarbamoyl)pyrrolidin-3-yl-4-fluoroisoindoline-2-carboxylate]",,< 10,< 10,< 10,,measurable covalent modification,
